Earlier results, collected in patent US11612669B2, “Disinfection method and apparatus” (University of Washington, priority 2020, dated 2023).

Test system: microbes, viruses, and bacteria in blood plasma
Details: one micromolar solution, white light at 45,000 lux for more than one hour

## CN(C)c1ccc2nc3ccc(=[N+](C)C)cc-3sc2c1 [methylene blue]
  inactivation of microbes, viruses, and bacteria: can inactivate microbes, viruses, and bacteria
